Reference: ChEMBL document CHEMBL1614632, “Trend analysis of a database of intravenous pharmacokinetic parameters in humans for 670 drug compounds” (Drug Metab Dispos, 2008)

Columns and labels:
clinical [1] = conditions: human, in vivo, iv, CL
clinical [2] = conditions: human, in vivo, iv, Vdss
clinical [3] = conditions: human, in vivo, iv, t1/2
clinical [4] = conditions: human, in vivo, iv

Row | Structure (SMILES) | clearance (clinical [1]) [mL/min/kg] | Vd (clinical [2]) [L/kg] | half-life (clinical [3]) [h] | MRT (clinical [4]) [h]
1 | CCC(CC)COC(C(=O)OCCN(C)C)(c1ccccc1)c1ccccc1 [DENAVERINE] | 5.7 | 7.1 | 34 | 21
2 | NC(=O)CC[C@@H]1NC(=O)[C@H](Cc2ccccc2)NC(=O)[C@H](Cc2ccc(O)cc2)NC(=O)CCSSC[C@@H](C(=O)N2CCC[C@H]2C(=O)N[C@H](CCCN=C(N)N)C(=O)NCC(N)=O)NC(=O)[C@H](CC(N)=O)NC1=O [DESMOPRESSIN] | 1.4 | 0.3 | 3 | 3.6
3 | CCCCCN(CCCOC)C(=O)[C@@H](CCC(=O)O)NC(=O)c1ccc(Cl)c(Cl)c1 [DEXLOXIGLUMIDE] | 3.7 | 0.18 | 1.2 | 0.79
4 | COC(=O)C1=C(C)NC(C)=C(C(=O)OCCCN2CCC(c3ccccc3)(c3ccccc3)CC2)[C@@H]1c1cccc([N+](=O)[O-])c1 [DEXNIGULDIPINE] | 9.3 | 8.4 | 22 | 15
5 | CC1=NS(=O)(=O)c2cc(Cl)ccc2N1 [DIAZOXIDE] | 0.06 | 0.21 | 48 | 58
6 | O=C(O)C(Cl)Cl [DICHLOROACETIC ACID] | 5.3 | 0.19 | 0.65 | 0.6
7 | O=C(O)Cc1ccccc1Nc1c(Cl)cccc1Cl [DICLOFENAC] | 3.5 | 0.22 | 1.4 | 1
8 | Cc1onc(-c2c(Cl)cccc2Cl)c1C(=O)N[C@@H]1C(=O)N2[C@@H]1SC(C)(C)[C@@H]2C(=O)O [DICLOXACILLIN] | 2 | 0.11 | 0.88 | 0.92
9 | C[C@H]1O[C@@H](O[C@H]2[C@@H](O)C[C@H](O[C@H]3[C@@H](O)C[C@H](O[C@H]4CC[C@@]5(C)[C@H](CC[C@@H]6[C@@H]5C[C@@H](O)[C@]5(C)[C@@H](C7=CC(=O)OC7)CC[C@]65O)C4)O[C@@H]3C)O[C@@H]2C)C[C@H](O)[C@@H]1O [DIGOXIN] | 1.7 | 4.1 | 38 | 40
10 | CC[N+](C)(C)c1cccc(O)c1.[Br-] [EDROPHONIUM BROMIDE] | 9.6 | 1.1 | 1.8 | 1.9

More lines, now with the values ahead:

Row | clearance (clinical [1]) [mL/min/kg] | Vd (clinical [2]) [L/kg] | half-life (clinical [3]) [h] | MRT (clinical [4]) [h] | Structure (SMILES)
11 | 5.3 | 1.2 | 4.1 | 3.7 | CCN1CC(CCN2CCOCC2)C(c2ccccc2)(c2ccccc2)C1=O (configuration not stated) [DOXAPRAM]
12 | 14 | 12 | 15 | 15 | CN(C)CCC=C1c2ccccc2COc2ccccc21 [DOXEPIN]
13 | 11 | 0.28 | 0.35 | 0.46 | C[C@H]1O[C@@H](n2cc(F)c(=O)[nH]c2=O)[C@H](O)[C@@H]1O [DOXIFLURIDINE]
14 | 15 | 22 | 32 | 24 | COc1cccc2c1C(=O)c1c(O)c3c(c(O)c1C2=O)C[C@@](O)(C(=O)CO)C[C@@H]3O[C@H]1C[C@H](N)[C@H](O)[C@H](C)O1 [DOXORUBICIN]
15 | 0.46 | 0.69 | 14 | 25 | C[C@H]1c2cccc(O)c2C(=O)C2=C(O)[C@]3(O)C(=O)C(C(N)=O)=C(O)[C@@H](N(C)C)[C@@H]3[C@@H](O)[C@@H]21.O [DOXYCYCLINE]
16 | 3.5 | 1.9 | 9.3 | 9 | CCOc1ccc(/C=C2\NCCc3cc(OCC)c(OCC)cc32)cc1OCC [DROTAVERINE]
17 | 4.8 | 0.42 | 1.7 | 1.5 | Cn1c(=O)c2c(ncn2CC(O)CO)n(C)c1=O (configuration not stated) [DYPHYLLINE]
18 | 1.6 | 0.38 | 39 | 4 | C[C@H](N[C@@H](CCc1ccccc1)C(=O)O)C(=O)N1CCC[C@H]1C(=O)O [ENALAPRILAT ANHYDROUS]
